Experimental data from patent US20260199484A1, “PROTAC DEGRADERS OF MLLT1 AND/OR MLLT3” (DARK BLUE THERAPEUTICS LTD, priority 2024, published 2026).

Experiments:
MV4-11 cells = test: MV4-11 cellular proliferative assay, Assay Format B (CTG 2.0, 168 h); type: cell-based; details: Homo sapiens, Assay format B, 168 h, read-out: IC50 (MV4-11 cellular proliferative assay)
Description: MV4-11 cells at a confluency of ~50-80% was used for cell growth assay. 600 cells/well in a 384-well opaque cell culture plate (6007680; Perkin Elmer) were seeded in 40 μL of complete medium (IMDM+10% FBS+1× Penicillin-Streptomycin). Cells were incubated overnight at 37° C., 5% CO2. 10 mM DMSO stocks were prepared, cells were treated with 10 concentrations of test compounds starting from 1 uM or 100 nM, 3-fold dilution in 10 uL (5× concentration) of complete medium. Final DMSO concentration was 0.3%. Culture plates were centrifuged at 40×g, 30s. Cells were incubated with compounds for 168 h (7 days). After 7 days, 20 uL CTG 2.0 reagent (G9242; Promega) was added per well and luminescence reading was taken in Envision Xcite 2105 multimode plate reader. Data was analyzed in GraphPad Prism 10.0 and data was shown as % viability with respect to DMSO control and dose-response curves were generated using four parameter logistic regression. Assay quality was determined by z-factor calculation using positive and negative controls.

MLLT1 [1] = biological target: T1, MLLT1 (Homo sapiens, UniProt Q03111); test: MLLT1 degradation assay in MV4-11 cells (JESS, 24 h); type: cell-based; parameters: endogenous in cells; host or cells: MV4-11 (ATCC CRL-9591); details: vs DMSO control
T1 sequence (Q03111 1-559): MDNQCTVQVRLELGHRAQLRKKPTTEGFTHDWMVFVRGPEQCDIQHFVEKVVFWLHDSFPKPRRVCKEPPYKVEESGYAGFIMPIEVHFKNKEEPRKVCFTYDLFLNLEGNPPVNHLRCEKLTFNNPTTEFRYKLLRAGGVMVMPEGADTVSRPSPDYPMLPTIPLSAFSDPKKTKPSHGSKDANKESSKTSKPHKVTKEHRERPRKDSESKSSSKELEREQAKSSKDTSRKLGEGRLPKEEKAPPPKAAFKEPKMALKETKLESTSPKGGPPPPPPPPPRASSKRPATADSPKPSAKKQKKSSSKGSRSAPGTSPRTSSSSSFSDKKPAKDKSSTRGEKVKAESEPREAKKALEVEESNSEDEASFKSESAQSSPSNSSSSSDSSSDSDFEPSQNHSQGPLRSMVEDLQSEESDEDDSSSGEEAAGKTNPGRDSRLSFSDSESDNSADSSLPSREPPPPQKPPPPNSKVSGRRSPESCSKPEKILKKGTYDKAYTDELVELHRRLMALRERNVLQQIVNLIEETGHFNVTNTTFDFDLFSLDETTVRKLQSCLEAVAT
Summary of the method: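 MV4-11 cells treated at 1000, 100 and 10 nM (0.1% DMSO) for 24 h at 37° C; lysates (4 ug protein) run on JESS capillary immunoassay with MLLT1 and GAPDH antibodies. Peak areas give % degradation versus DMSO, binned A (≥75%) to D (<25%).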

MLLT1 [2] = biological target: T1, MLLT1; test: MLLT1 HTRF IC50 determination assay (H3K9cro peptide displacement); type: binding; details: category, Table 4
Excerpt: This procedure is intended to measure the interaction between YEATS proteins and histone peptides modified by an appropriate epigenetic mark and can be used to assay compounds which bind to the YEATS proteins and inhibit this interaction. The assay uses 6His tagged MLLT1 or MLLT3 with an anti-6His antibody conjugated with Eu^3+ chelate (donor) and a biotinylated peptide with Streptavidin conjugated XL-665 (acceptor). When the donor and acceptor labels are in close proximity, by binding of the peptide by MLLT1 or MLLT3, the excitation of the donor (337 nm) triggers a Fluorescence Resonance Energy Transfer (FRET) to the acceptor which then fluoresces at specific wavelength (665 nm).
This step optimises the protein/peptide ratio that will be used in HTRF screening assay in order to allow the best signal-to-noise ratio. Each new purified protein should be titrate this way as the signal-to-noise ratio may differ from different protein batches. Displacement assay for MLLT1 and MLLT3 was performed by using H3K9 cro peptide (ARTKQTAR(Kcrot)STGGKAPRKQLYK(biotin)).
A serial dilution of 4× solution of biotinylated peptide was prepared in assay buffer (25 mM HEPES, 20 mM NaCl, 0.05% BSA, 0.05% Tween-20, pH 7.0) covering concentrations from 3.2 μM to 0.2 nM. and 5 μL of each dilution were transferred horizontally to fill 15 columns of a white ProxiPlate-384 Plus shallow well Microplate (Perkin Elmer, USA). A sixteenth column of buffer was also included for a background reference. In parallel, a serial dilution of the 6His-tag protein of interest was prepared in the same way and 5 μL of each dilution were vertically added to the wells containing the peptide dilutions. Buffer has been transferred to the last line of the plate in order to make a no-protein reference. The microplate has been covered and incubated 1 hour at room temperature. A 2× detection mix was prepared in assay buffer by diluting streptavidin conjugated with XL-665 (610SAXLB, Cisbio Bioassays, France) to 1/2000 and anti-6His(Eu) chelate (LANCE Eu-W1024 Anti-6×His, ADO111, Perkinelmer LAS (UK)LTD) to 1/20000, 10 μL were added to each well and the plate has been incubated for 1 to 24 hours at room temperature in the dark. The plate was read in the Pherastar using the HTRF module with dual emission protocol (A=ex. 320 nm em. 665 nm, B=ex. 320 nm em. 620 nm).
The HTRF ratio was calculated as channel A/B*10000 and the specific signal as follow: specific signal=HTRF Ratio Positive signal—HTRF Ratio Negative signal (without protein). The concentrations of protein and peptide that allow the maximum specific signal without saturation were selected to perform HRTF screening assay described below.
The compounds were dissolved in DMSO at a stock concentration of 10 mM and dispensed into microplate using the Echo acoustic liquid handler (Labcyte, Beckman Coulter, USA). The assay covers a window of compound concentrations from 20 μM to 20 nM spread in 11 data points in duplicate. Solvent and compound controls were added to each plate in order to calculate the background signal.
Ten microliters of 2× mix of 6His-protein and biotinylated peptide, the concentrations were determined above, were added to the dispensed compounds and incubated for one hour at room temperature in the dark. Ten microliters of the 2× detection mix was added to each well and the plate was incubated for another hour at room temperature in the dark and the plate was read in order to calculate the HTRF specific signal. The % inhibition values as follows:
The IC50 values were determined by plotting % inhibition vs compound concentration and fitting the data to a non-linear sigmoidal dose response equation (4 parameter fit): […]

SMILES	IC50 (MV4-11 cells)	MLLT1% Degradation @ 0.01 μM (MLLT1 [1])	MLLT1% Degradation @ 0.1 μM (MLLT1 [1])	MLLT1% Degradation @ 1 μM (MLLT1 [1])	IC50 (MLLT1 [2])
CCN1CCCC1c1cc2cnc(NC(=O)c3ccc4c(C)nn(C)c4c3)cc2[nH]1 (single isomer, unassigned) [Example 85, N-{2-[(rel-2S)-1-ethylpyrrolidin-2-yl]-1H-pyrrolo[3,2-c]pyridin-6-yl}-1,3-dimethylindazole-6-carboxamide]					1 to 10 µM
Cc1nn(CCCCCC2CCN(c3ccc4c(c3)C(=O)N(C3CCC(=O)NC3=O)C4=O)CC2)c2cc(C(=O)Nc3cc4[nH]c([C@H]5CCCN5C)cc4cn3)ccc12 (stereo partly drawn) [Example 109, 1-(5-(1-(2-(2,6-dioxopiperidin-3-yl)-1,3-dioxoisoindolin-5-yl)piperidin-4-yl)pentyl)-3-methyl-N-(2-((R)-1-methylpyrrolidin-2-yl)-1H-pyrrolo[3,2-c]pyridin-6-yl)-1H-indazole-6-carboxamide]	< 0.1 µM	A (Category A: A≥75% degradation)	A (Category A: A≥75% degradation)	A (Category A: A≥75% degradation)	
Cc1nn(C2CCN(CC3CCN(c4cccc5c4C(=O)N(C4CCC(=O)NC4=O)C5=O)CC3)CC2)c2cc(C(=O)Nc3cc4[nH]c([C@H]5CCCN5C)cc4cn3)ccc12 (stereo partly drawn) [Example 71, 1-(1-((1-(2-(2,6-dioxopiperidin-3-yl)-1,3-dioxoisoindolin-4-yl)piperidin-4-yl)methyl)piperidin-4-yl)-3-methyl-N-(2-((R)-1-methylpyrrolidin-2-yl)-1H-pyrrolo[3,2-c]pyridin-6-yl)-1H-indazole-6-carboxamide]	< 0.1 µM	B (Category B: 50%≤B<75% degradation)	A (Category A: A≥75% degradation)	A (Category A: A≥75% degradation)	
Cc1nn(C2CCN(CC3CCN(c4ccc5c(c4)C(=O)N(C4CCC(=O)NC4=O)C5=O)CC3)CC2)c2cc(C(=O)Nc3cc4[nH]c([C@H]5CCCN5C)cc4cn3)ccc12 (stereo partly drawn) [Example 70, 1-(1-((1-(2-(2,6-dioxopiperidin-3-yl)-1,3-dioxoisoindolin-5-yl)piperidin-4-yl)methyl)piperidin-4-yl)-3-methyl-N-(2-((R)-1-methylpyrrolidin-2-yl)-1H-pyrrolo[3,2-c]pyridin-6-yl)-1H-indazole-6-carboxamide]	< 0.1 µM	A (Category A: A≥75% degradation)	A (Category A: A≥75% degradation)	A (Category A: A≥75% degradation)	

Further lines, results first:

IC50 (MV4-11 cells)	MLLT1% Degradation @ 0.01 μM (MLLT1 [1])	MLLT1% Degradation @ 0.1 μM (MLLT1 [1])	MLLT1% Degradation @ 1 μM (MLLT1 [1])	IC50 (MLLT1 [2])	SMILES
< 0.1 µM	A (Category A: A≥75% degradation)	A (Category A: A≥75% degradation)	A (Category A: A≥75% degradation)		Cc1nn(CCCCCCCC#Cc2cccc3c2CN(C2CCC(=O)NC2=O)C3=O)c2cc(C(=O)Nc3cc4[nH]c([C@H]5CCCN5C)cc4cn3)c(F)cc12 (stereo partly drawn) [Example 58, 1-(9-(2-(2,6-dioxopiperidin-3-yl)-1-oxoisoindolin-4-yl)non-8-yn-1-yl)-5-fluoro-3-methyl-N-(2-((R)-1-methylpyrrolidin-2-yl)-1H-pyrrolo[3,2-c]pyridin-6-yl)-1H-indazole-6-carboxamide]
< 0.1 µM	A (Category A: A≥75% degradation)	A (Category A: A≥75% degradation)	A (Category A: A≥75% degradation)		Cc1nn(CCCCCCCC=C(Cl)c2ccc3c(c2)n(C)c(=O)n3C2CCC(=O)NC2=O)c2cc(C(=O)Nc3cc4[nH]c([C@H]5CCCN5C)cc4cn3)ccc12 (mixture of isomers) [Example 40]
< 0.1 µM	A (Category A: A≥75% degradation)	A (Category A: A≥75% degradation)	A (Category A: A≥75% degradation)		Cc1nn(CCCCCCCC#Cc2ccc3c(c2)n(C)c(=O)n3C2CCC(=O)NC2=O)c2cc(C(=O)Nc3cc4[nH]c([C@H]5CCCN5C)cc4cn3)ccc12 (stereo partly drawn) [Example 39, 1-(9-(1-(2,6-dioxopiperidin-3-yl)-3-methyl-2-oxo-2,3-dihydro-1H-benzo[d]imidazol-5-yl)non-8-yn-1-yl)-3-methyl-N-(2-((R)-1-methylpyrrolidin-2-yl)-1H-pyrrolo[3,2-c]pyridin-6-yl)-1H-indazole-6-carboxamide]
< 0.1 µM	A (Category A: A≥75% degradation)	A (Category A: A≥75% degradation)	A (Category A: A≥75% degradation)		Cc1nn(CCCCCCCC#Cc2cccc3c2CN([C@@H]2CCC(=O)NC2=O)C3=O)c2cc(C(=O)Nc3cc4[nH]c([C@H]5CCCN5C)cc4cn3)ccc12 (relative stereo) [Example 99, 1-(9-(2-((rel-R)-2,6-dioxopiperidin-3-yl)-1-oxoisoindolin-4-yl)non-8-yn-1-yl)-3-methyl-N-(2-((R)-1-methylpyrrolidin-2-yl)-1H-pyrrolo[3,2-c]pyridin-6-yl)-1H-indazole-6-carboxamide]
